Measured values taken from patent US12303891B2, “Emulating vascular cellular physiologies” (CALIFORNIA NORTHSTATE COLLEGE OF PHARMACY, LLC, priority 2021, dated 2025).
“Also recorded” adds a separate entry of the source.

Legend:
PAH patients [1] = experiment: Responsiveness of female and male PAH patients to anti-PAH drugs; format: in vivo, human; details: for responsiveness of female PAH patients: 'we have found'
[2] = system: PAH-ECs/SMCs/ADCs of male and female patients; experiment: PAH chip, sex-specific therapeutic response to bosentan; format: cell-based, human
Experimental: As reported in our recent publication, we first characterized the cells for various markers and seeded control and PAH cells on the respective channels of the chips at a density of 2×10^6 cells/mL of adventitial cells (ADCs) or SMCs and 5˜10×10^6 cells/mL of ECs. SMCs were seeded in rat tail type I collagen solution (Corning Inc., NY). We fed the cells with the media via the two outermost channels. In experiment when chips were seeded with three different cell types, we first instilled collagen (2 mg/mL) alone or SMC mixed with collagen into the medial channel and allowed 20 minutes for collagen to form gel and then seeded ECs and ADCs 20 minutes apart. The cell-laden chips thus prepared were placed in a humidified chamber and let them grow in a CO2 incubator for 5-8 days. Each day, the medium was removed and replaced with 150 μL fresh media.
(§1) Into chips prepared by seeding PAH-ECs/SMCs/ADCs of male and female patients, we infused 50 µM bosentan starting from day 4 of cell seeding and continued the infusion for an additional 3 days. To determine whether the drug had any preventive effects, we treated the cell-laden chips with 50 µM bosentan on day 1 of seeding and let the cells grow for 6 more days with no treatment. For studying the influence of growth hormones and anti-PAH drug on cellular functions and remodeling, we seeded male and female PAH-ECs, QD705-labeled or unlabeled PAH-SMCs and PAH-ADCs. We assessed the deposition of human ColT1, expression of aromatase (an enzyme that synthesizes estrogen) and CYP1B1 (an estrogen-metabolizing enzyme) and then measured arterial remodeling and muscularization.
For assessing the effect of the drug pulmonary arterial thickening, we assumed that ECs and SMCs grow in their respective channels, the intimal and medial layers of the chip, not outside their assigned layers. If ECs or SMCs grow outside their original seeding channels, we considered out-of-designated channel growth as intimal or medial layer thickening, respectively. We also considered the migration of SMCs from the medial to intimal as muscularization and that the number of SMCs that grow in the intimal layers is the degree of muscularization. These assumptions were based on PAH pathology whereby non-muscularized distal arteries/arterioles become muscularized and show SM-like cells from preexisting SMCs. We used phase contrast microscopy, immunostaining, and quantum dot labeling to draw line between the growth zones of different cells and for counting and identifying cells.
For demarcating boundaries of different cell growth areas, we first imaged the chips using a phase-contrast microscope and then stained the cells for imaging using a confocal microscope. For calculating the extent of intimal and medial thickening, we calculated the average of the lengths of five to seven diametrically uneven points of the same layer. To determine the degree of muscularization, we grew QD-labeled N-SMC/PAH-SMCs on the chip and stained the chips for FSP-1 and CD31 antibodies and counted the number of FSP-1+CD31− or QD-labeled SMCs in all three layers of the chip.

CMs and PAH-ECs = experiment: PAH-RVH chip prepared with CMs and PAH-ECs, efficacy of anti-PAH drugs; format: cell-based, human; details: chips prepared with CMs and PAH-ECs
Description: The modified chip device can be used, for example, for growing both cardiomyocytes (CMs) in the study of cardiovascular disease, and pulmonary arterial endothelial cells (ECs) in the study of pulmonary vascular diseases. The pulmonary arterial ECs, for example, can be collected from the pulmonary arteries of healthy donors (N-ECs) and that of PAH patients (PAH-ECs). We have seen that PAH is an example of a disease that can benefit from improved treatments developed with the systems and methods taught herein. Through the growing of CMs and either N-ECs or PAH-ECs in respective compartments or channels, for example, we can measure the influence PAH-ECs on CMs by measuring various soluble cellular markers, assessing the contractility of CMs, evaluating the expression of genes by CMs, and study the influence of anti-PAH PAH drugs on the release of hypertrophy inducing agents and hypertrophic markers and CM contractility.
We developed a drug therapy using the systems and methods. We used two anti-PAH drugs, sildenafil and bosentan, on chips prepared with CMs and PAH-ECs, the drug reduced the extent of CM hypertrophy, improved the contractility, and reduced both hypertrophy-inducing agents and hypertrophic markers. From our study, one of skill will understand that the systems and methods can identify the interactions between PAH-afflicted ECs and CMs and assess the efficacy of anti-PAH drugs in ameliorating pulmonary arterial hypertension right ventricular hypertrophy (PAH-RVH).

PAH patients [3] = details: female vs male PAH patients (p=0.3); cited from earlier work
[4] = system: PACs of female patients and male patients; experiment: Chips with PACs of female and male PAH patients treated with estrogen and growth factor; format: cell-based, human
Experimental: as §1
For assessing the effect of the drug pulmonary arterial thickening, we assumed that ECs and SMCs grow in their respective channels, the intimal and medial layers of the chip, not outside their assigned layers. If ECs or SMCs grow outside their original seeding channels, we considered out-of-designated channel growth as intimal or medial layer thickening, respectively. We also considered the migration of SMCs from the medial to intimal as muscularization and that the number of SMCs that grow in the intimal layers is the degree of muscularization. […]

[5] = bosentan-treated female vs male chips
[6] = early treatment, female chips compared with male counterparts
[7] = female chips, 50 µM bosentan infused from day 4 for 3 days
[8] = preventive: treated on day one after seeding, then 6 days without treatment, female vs male chips

CCCCC[C@H](O)/C=C/[C@@H]1[C@H]2C/C(=C/CCCC(=O)O)O[C@H]2C[C@H]1O [epoprostenol]
responsiveness of female PAH patients (PAH patients [1]): more responsive

CCCCC[C@H](O)CC[C@@H]1[C@H]2Cc3cccc(OCC(=O)O)c3C[C@H]2C[C@H]1O [treprostinil]
responsiveness of female PAH patients (PAH patients [1]): more responsive

COc1ccccc1Oc1c(NS(=O)(=O)c2ccc(C(C)(C)C)cc2)nc(-c2ncccn2)nc1OCCO [bosentan]
ColT1a deposition, compartment-specific analysis [2, 5]: lower in bosentan-treated female chips than in the male chips | laminin deposition, compartment-specific analysis [2, 5]: lower in bosentan-treated female chips than in the male chips | responsiveness of female chips compared with male chips ([2]; chips with cells from female vs male PAH patients, 50 µM bosentan): more responsive | intimal deposition of ColT1a [2, 6]: decreases | intimal deposition of laminin [2, 6]: decreases | CYP1B1 expression in the medial layer [2, 7]: lowered | migration of PAH-SMCs toward the luminal and intimal layers [2, 7]: slowed | thickening of the medial layer [2, 7]: reduced | level of muscularization ([2]; female vs male chips, counting QD705+ PAH-SMCs in intimal layers): lower level of muscularization | expression of CYP1B1 [2, 8]: declined more in the medial layer of the female chips than in the male chips | presence of PAH-SMCs in the endothelial layer [2, 8]: lower in the female chips than in the male chips | contractility of CMs (CMs and PAH-ECs): improved | extent of CM hypertrophy (CMs and PAH-ECs): reduced | hypertrophic markers (CMs and PAH-ECs): reduced | hypertrophy-inducing agents (CMs and PAH-ECs): reduced | responsiveness of female PAH patients (PAH patients [1]): more responsive | responsiveness of female PAH patients compared with male patients, clinical data (PAH patients [3]): more responsive; also recorded: responsive

Estrogen
responsiveness of female chips compared with male chips ([4]; chips with PACs from female vs male PAH patients): more responsive | arterial remodeling ([4]; chips with PACs of female patients vs male patients): more extensive arterial remodeling

CC(C)N(CCCCOCC(=O)NS(C)(=O)=O)c1cnc(-c2ccccc2)c(-c2ccccc2)n1 [selexipag]
responsiveness of female PAH patients (PAH patients [1]): more responsive

CCCNS(=O)(=O)Nc1ncnc(OCCOc2ncc(Br)cn2)c1-c1ccc(Br)cc1 [macitentan]
responsiveness of female PAH patients (PAH patients [1]): more responsive

CCCc1nn(C)c2c(=O)[nH]c(-c3cc(S(=O)(=O)N4CCN(C)CC4)ccc3OCC)nc12 [sildenafil]
contractility of CMs (CMs and PAH-ECs): improved | extent of CM hypertrophy (CMs and PAH-ECs): reduced | hypertrophic markers (CMs and PAH-ECs): reduced | hypertrophy-inducing agents (CMs and PAH-ECs): reduced | responsiveness of male PAH patients (PAH patients [1]; male PAH patients, 'we have also found'): more responsive
